{
  "source": "patent EP1733758A1",
  "about": "“Methods for administration of a farnesyl dibenzodiazepinone” (Ecopia Biosciences Inc., priority 2005, dated 2006)",
  "key": {"[1]": {"tested_on": "human breast tumor (MDA-MB-231) xenografts", "assay": "Human MDA-MB-231 breast tumor xenograft efficacy", "assay_type": "in vivo, HRLN female nude mice", "details": "for T/C / %T/C: day 21; for %T/C: P < 0.0001", "description": "(§1) The antitumor activity of the compound of Formula I was further tested in a human MD-MB-231 breast cancer model in mice. HRLN female nude mice (8 weeks of age) were treated with 5x10^6 MDA-MB-231 tumor cells (SC) in the right flank. Animals were randomized (ten per group) when tumors reach an average size of 80 - 120 mg and treatment began according to the table below. For these studies, the compound of Formula I was formulated in 5% ethanol, 5% PEG-400, 15% Polysorbate 80, and 75% of water containing 5% dextrose.\nTumor measurements were taken twice weekly using calipers and were converted to tumor mass (in milligrams) using the formula: with^2 (mm) x length (mm) x 0.52. Body weights were also recorded twice weekly. Statistical analysis was done using the unpaired two-tailed Student's t test."}, "[2]": {"assay": "Toxicity of 14-day continuous intravenous infusion in rats", "assay_type": "in vivo", "details": "14-day infusion, all treated and control groups, toxicity was due to the vehicle", "description": "Sprague-Dawley rats received an intravenous continuous infusion over 14 days of Formula I at 25 mg/kg/day, 50 mg/kg/day, or 75 mg/kg/day at a rate of 2 mL/kg/h for 14 consecutive days (same formulation as in Example 7). Blood was collected from the jugular vein in tubes containing K2 EDTA from 3 rats/sex/group at the following time points: 2, 6, and 12 hours after the start of dosing on Day 1, on Day 2 at 6 hours (approximately 30 hours after the start of dosing), on Days 6 and 10 at 6 hours, and on Day 15, 1 hour prior the end of dosing, and then at 5 min, 15 min, 30 min, 1 h, and 2 h after the end of dosing.\nThe toxicity was due to the vehicle and was attributed to smaller size of infusion vessels, and concurrent catheter tract infection."}, "[3]": {"tested_on": "orthotopic C6 glioma tumor xenograft", "assay": "Orthotopic C6 glioma tumor xenograft survival model", "assay_type": "in vivo, CD1 female nude mice", "details": "IP 30 mg/kg days 1, 2 and 3, then 10 mg/kg days 4 and 5 and 9 to 38", "description": "The antitumor activity of the compound of formula I was further tested in a orthotopic C6 glioma tumor xenograft model in mice. CD1 female nude mice (6 weeks of age) were grafted intra-cerebrally with 5 x 10^4 (volume of 10 microliters) rat C6 glioma cells (day 0). Treatment was initiated 24 h after tumor cell implantation. The compound of Formula I was administered intraperitoneally (IP) at a concentration of 30 mg/kg (volume of 10 mL/Kg) on days 1, 2 and 3 followed by IP injections of 10 mg/kg on days 4 and 5 and 9 to 38. Vehicle (30% PEG; 30% PG; 40% H2O was injected in a volume of 10 mL/kg using the same route and schedule.\nBody weight of animals was monitored every other day and the effect of the compound of Formula I on growth of intracerebral glioma tumors was evaluated by mouse survival and percentage increase in life span (%ILS, expressed as mean survival time of treated animals minus the mean survival time of the control group). By criteria established by the National Cancer Institute, increases in life span exceeding 25% indicate that the drug has significant antitumor activity (Plowman et al. (1997) Human tumor xenografts models in NCI drug development. In: Theicher BA (ed) Anticancer drug development guide: prescreening, clinical trials and approval. Human press, Totowa, pp 101-125). Statistical analysis of mouse survival was performed by Kaplan-Mayer analysis. […]"}, "[4]": {"tested_on": "human prostate tumor (PC3) xenografts", "assay": "Human PC3 prostate tumor xenograft efficacy", "assay_type": "in vivo, HRLN male nude mice", "details": "for %T/C: day 38, P< 0.0001", "description": "as §1, with “anticancer” for “antitumor”, “PC3 prostate” for “MD-MB-231 breast cancer”, “male” for “female”, “implanted” for “treated”, “1 mm^3 PC3” for “5x10^6 MDA-MB-231”, “fragments subcutaneously” for “cells”\nTumor measurements were taken twice weekly using callipers and were converted to tumor mass (in milligrams) using the formula: with^2 (mm) x length (mm) x 0.52. Body weights were also recorded twice weekly. Statistical analysis was done using the unpaired two-tailed Student's t test."}, "[5]": {"assay": "Population pharmacokinetic analysis (NONMEM), monkey", "assay_type": "in vivo", "details": "for clearance: monkey, plasma, intravenous; for clearance / mean steady-state plasma concentration: monkeys, 14-day continuous infusion", "description": "An analysis was performed to derive allometric equations for Formula I pharmacokinetic parameters using Formula I plasma concentration-time data from three species, including mouse, rat, and monkey, and to estimate human pharmacokinetic parameters from those allometric equations.\nPlasma concentrations of Formula I were obtained from mice, rats, and monkeys following intravenous injection or continuous infusion. Formula I pharmacokinetic parameters in mice, rats, and monkeys were estimated using population pharmacokinetic analysis, a function of the software program NONMEM™ (version 5). Typical population pharmacokinetic parameters for Formula I in humans were extrapolated from allometric equations that were derived from pharmacokinetic parameters estimated in the three animal species.\nA two-compartment model with a first-order elimination from the central compartment adequately described Formula I plasma concentration-time profiles following intravenous bolus injection (30 mg/kg) in mice and rats, 7-day continuous infusion in rats (50 to 170 mg/kg/day), and 14-day continuous infusion in monkeys (5 to 30 mg/kg/day).\nApplication of a two-compartment model with Michaelis-Menten elimination better described the concentration data in monkeys than the linear model. Because the target concentration in humans is 2 µM, at which linear pharmacokinetics is assumed, all simulations for human plasma concentrations were performed based on a two-compartment model with linear first-order elimination."}, "[6]": {"details": "bolus intravenous treatment (100 mg/kg, 5/2/5/2/5)"}, "[7]": {"details": "Monkey (CIV), typical population PK parameter"}, "[8]": {"details": "5 mg/kg/day (Example 9 analysis)"}, "[9]": {"details": "15 mg/kg/day (Example 9 analysis)"}, "[10]": {"details": "30 mg/kg/day (Example 9 analysis)"}},
  "data": [
    {"smiles": "CC(C)=CCC/C(C)=C/CC/C(C)=C/CN1C(=O)c2cccc(O)c2Nc2c(O)cc(O)cc21", "note": "[Formula I, 10-farnesyl-4,6,8-trihydroxy-dibenzodiazepin-11-one]", "values": [
      {"measurement": "T/C", "setting": "[1]; IP 30 mg/kg every three days x 7, P = 0.0007", "result": 58, "unit": "%"},
      {"measurement": "%T/C", "setting": "[1]; SC 20 mg/kg everyday for 21 days", "result": 40, "unit": "%"},
      {"measurement": "%T/C", "setting": "[1]; SC 30 mg/kg days 1 to 5, 8 to 12", "result": 35, "unit": "%"},
      {"measurement": "T/C", "setting": "[1]; SC 50 mg/kg every three days x 7, P= 0.0019", "result": 68, "unit": "%"},
      {"measurement": "antitumor activity", "setting": "[1]; [6]", "result": "did not result in activity"},
      {"measurement": "infusion site findings", "setting": "[2]", "result": "necrotization and inflammatory lesions at the site of infusion"},
      {"measurement": "increase in life span", "setting": "[3]", "result": 29, "unit": "%"},
      {"measurement": "increase survival", "setting": "[3]", "result": 7, "unit": "days"},
      {"measurement": "%T/C", "setting": "[4]; bolus SC 30 mg/kg days 1 to 5, 8 to 12 and 15 to 19", "result": 25.5, "unit": "%"},
      {"measurement": "%T/C", "setting": "[4]; bolus SC 50 mg/kg every three days x 7", "result": 14.6, "unit": "%"},
      {"measurement": "antitumor activity", "setting": "[4]; [6]", "result": "did not result in activity"},
      {"measurement": "Q", "setting": "[5]; Monkey (CIV), WT 3.8 Kg", "result": 0.151, "unit": "L/h"},
      {"measurement": "V1", "setting": "[5]; Monkey (CIV), WT 3.8 Kg", "result": 0.771, "unit": "L"},
      {"measurement": "V2", "setting": "[5]; Monkey (CIV), WT 3.8 Kg", "result": 1.59, "unit": "L"},
      {"measurement": "Ke", "setting": "[5]; [7]", "result": 2.172, "unit": "h⁻¹"},
      {"measurement": "Q", "setting": "[5]; [7]", "result": 0.0398, "unit": "L/h/kg"},
      {"measurement": "V1", "setting": "[5]; [7]", "result": 0.203, "unit": "L/kg"},
      {"measurement": "V2", "setting": "[5]; [7]", "result": 0.419, "unit": "L/kg"},
      {"measurement": "clearance", "setting": "[5]; [8]", "result": 0.63, "unit": "L/h/kg"},
      {"measurement": "clearance", "setting": "[5]; [9]", "result": 0.57, "unit": "L/h/kg"},
      {"measurement": "clearance", "setting": "[5]; [10]", "result": 0.23, "unit": "L/h/kg"},
      {"measurement": "mean steady-state plasma concentration", "setting": "[5]; [8]", "result": 0.75, "unit": "µM"},
      {"measurement": "mean steady-state plasma concentration", "setting": "[5]; [9]", "result": 2.57, "unit": "µM"},
      {"measurement": "mean steady-state plasma concentration", "setting": "[5]; [10]", "result": 14.07, "unit": "µM"}
    ]}
  ]
}
